# Results from patent US8815590B2, “Composition and method for differentiation of human embryonic stem cells” (Stem Cells for Safer Medicines Limited, priority 2009, dated 2014).
# Experiments:
# [1] = test system: Human ESCs [SHEF3]; test: Colony morphology, RT-PCR and Western blot of OCT4/NANOG in treated human ESCs; assay type: cell-based
# Description: Human ESCs [SHEF3] were treated with the indicated concentrations of BIO or compound 1M or left untreated as a control and cultured for 7 days. (A) Images show typical colonies formed following the indicated treatments. The scale bars represent 1 mm. (B) Histogram plots of ESCs analysed by flow cytometry following immunostaining with antibodies against the pluripotency markers Tra-1-60 or SSEA4. (C) RNA was extracted from the cells and RT-PCR analyses performed using primers specific to the pluripotency genes OCT4 and NANOG and to the house-keeping gene β-ACTIN. (D) Western blot analysis was performed on protein extracted from the cells and immunoblotted with antibodies specific to Oct4. Blots were stripped and reprobed with anti-Gapdh antibodies to assess equal loading. (E) Compound 1O also induces differentiation of human ESCs. SHEF3 cells were treated with the indicated concentration of 1O for 7 days. Images show typical colony morphology. (F) Histogram plots of ESCs analysed by flow cytometry following staining with Tra-1-60 and SSEA4 antibodies. Analysis of percent positive cells and mean fluorescent intensity are indicated on the plots. (G) RT PCR analysis for the expression of OCT4 and NANOG. Bands for each of the genes were from the same gel with intervening samples removed. (H) Western blot analysis of OCT4 protein expression. Proteins bands were from the same immunoblot with intervening samples removed.
# SHEF1 and SHEF3 human ESCs were obtained from the UKSCB and cultured as outlined in their protocols. Briefly, ESCs were maintained on mitomycin C-inactivated mouse embryonic fibroblast (MEF) feeder layers in KnockOut Dulbecco's modified Eagle's medium (KO DMEM) (Invitrogen) supplemented with 20% (vol/vol) KO serum replacement (KOSR; Invitrogen), 1 mM non-essential amino acids (NEAA; Invitrogen), 1 mM glutamine (Invitrogen), 0.1 mM 2-mercaptoethanol (BioRad), penicillin/streptomycin, and 4 ng/ml recombinant human FGF2 (Peprotech). Cultures were passage using 1 mg/ml collagenase at a ratio of 1:8 to 1:12 every 7 days. Cultures were transferred to a feeder-free, chemically defined culture system on ESC-qualified Matrigel® (BD) coated plates in mTeSR1® (Stem Cell Technologies) media according to Stem Cell Technologies' protocol.
# Total RNA was isolated and purified using TRIzol Reagent (Invitrogen), following the manufacturer's instructions. All RNA samples were treated with DNase I (Ambion) before cDNA synthesis to eliminate any contaminating genomic DNA. RNA (1 μg) was reverse transcribed into cDNA using Oligo(dT)15 (Promega) and SuperScript II (Invitrogen). Gene-specific PCR was carried out using primers and annealing temperatures outlined in Table 2.
# Cell lysates (20 μg) were prepared, separated by SDS-PAGE and transferred to nitrocellulose as described previously (Welham et al., 1994). Immunoblotting was carried out using primary antibodies at the following dilutions: 1:5,000 anti-Oct4 (Santa Cruz Biotechnology; sc-9081); 1:2000 anti-GAPDH (sc-20357); 1:10,000 anti-phospho (Ser33/37/Thr41) β-catenin (Cell signalling Technology; CST 9561); 1:1000 anti-β-catenin (CST 9562). Anti-rabbit antibodies conjugated to horseradish peroxidise (DAKO) were used at 1:10,000 and blots were developed using ECL Advance (GE Healthcare) or ChemiGlow (Alpha Innotech) according to manufacturer's directions. Images were captured and analysed using the ImageQuant RT ECL system (GE Healthcare). Blots were stripped and reprobed as described previously (Welham et al., 1994).
# [2] = test system: definitive endoderm derived from human ESCs; test: Differentiation of chemically induced DE to hepatocyte-like cells; assay type: cell-based; details: DE induction with compound, then HGF/FGF4, then HGF/FGF4/OSM/Dex
# Source text: (A) Schematic representation of the differentiation protocol. (B) Images of differentiated cells at stage II (d14) and stage III (d25). (C) RT-PCR expression analyses of RNA prepared from cells at the indicated stages of differentiation, using primers specific to the genes indicated. RNA extracted from human liver was used as a positive control. β-ACTIN was used as a housekeeping gene. (D) Expression of FoxA2 and the early hepatic markers HNF4α, AFP and TTR in cells at stage II and stage III of differentiation were analyzed by immunofluorescence. Scale bar represents 50 μm. (E) Media (1 μl) from stage III (d25) cells, conditioned for 48 hours, and from a media alone (MA) control were analysed by immunoblotting with an antibody to AFP. Purified AFP and media conditioned from HUH7 cells were run as controls. (F) ELISA assay for human Albumin from stage III (d25) media. (G) Differentiation of BIO-derived DE cells to hepatocyte-like cells. SHEF3 ESCs were treated with 2 μM BIO for 5 days to induce differentiation to the DE. ESCs were then cultured under hepatic induction and maturation conditions as outlined in the Experimental Procedures and FIG. 5A. Expression of FOXA2 and the early hepatic markers HNF4α, AFP and TTR in ESCs at stage II and stage III of differentiation were analyzed by immunofluorescence. Scale bar represents 50 μm. […]
smiles,measurement,setting,value
O=C1NC(=O)C2=C1c1cn(c3ccccc13)CCOCCOCCOCCOCCn1cc2c2ccccc21 [1M],OCT4 and NANOG gene expression (RT-PCR),[1]; 7 days treatment,loss of the pluripotency markers OCT4 and NANOG
same,Oct4 protein expression (Western blot),[1]; 7 days treatment,loss of Oct4 protein expression
same,Proliferation and differentiation of human ESCs (colony morphology),"[1]; 7 days, on MEFs in KO DMEM or on Matrigel in mTeSR1, 1M at 2 μM",dramatic increase in proliferation and differentiation
same,Potential of compound-derived DE to form hepatocyte-like cells,[2],has the potential to differentiate into cells with hepatocyte characteristics
